Test results reported in ChEMBL document CHEMBL1153899, “Discovery of benzothiazole derivatives as efficacious and enterocyte-specific MTP inhibitors” (Bioorg Med Chem Lett, 2009).
pIC50: −log10 of the molar value. The source made the active and inactive calls. The calls are words filed in the database; no cut-off is given here.

Legend:
Mus musculus [1] = assay: Decrease in total food intake in 3-day high fat diet fed C57BL/6 mouse at 10 mg/kg, po daily for 3 days; format: functional
[2] = Inhibition of MTP from dog liver microsomes by scintillation counting; parameters: species or system Canis lupus familiaris, Microsome
HepG2 = assay: Inhibition of apoB secretion in human HepG2 cells after 40 hrs by ELISA; format: functional, cell-based; conditions: HepG2, 40 h
Mus musculus [3] = assay: Decrease in plasma triglyceride level in […] C57BL/6 mouse at 10 mg/kg, po daily for 3 days measured after 6 hrs; format: functional
Mus musculus [4] = assay: Increase in peptide YY level in 3-day high fat diet fed C57BL/6 mouse at 10 mg/kg, po daily for 3 days; format: functional, organism-based; parameters: dose 10 mg/kg
Mus musculus [5] = assay: Decrease in body weight in […] at 10 mg/kg, po daily for 3 days; format: functional, C57BL/6

Structure (SMILES) | Activity (Mus musculus [1]) | pIC50 [2] | pIC50 (HepG2) | Activity (Mus musculus [3]) | Activity (Mus musculus [4]) | Activity (Mus musculus [5])
Cc1csc2nc(-c3ccccc3C(=O)Nc3ccc4nc(C(=O)N[C@H](C(=O)N(C)Cc5ccc(F)cc5)c5ccccc5)sc4c3)cn12 | inactive | 7.77 | 8.16 | inactive | inactive | inactive
CN(Cc1ccccc1)C(=O)[C@@H](NC(=O)c1cc2cc(NC(=O)c3ccccc3-c3ccc(C(F)(F)F)cc3)ccc2n1C)c1ccccc1 [DIRLOTAPIDE] |  | 8.70 | 8.40 |  |  | 
CCCCN(C)C(=O)[C@@H](NC(=O)c1nc2ccc(NC(=O)c3ccccc3-c3ccc(C(C)(C)C)cc3)cc2s1)c1ccccc1 |  | 8.02 | 8.19 |  |  | 
